From US9695155B2, “Herbicidal substituted pyrimidinyloxy benzene compounds” (E. I. DU PONT DE NEMOURS AND COMPANY, priority 2013, dated 2017)

How the values were obtained:
[1] = test system: giant foxtail; assay: Test A preemergence; assay type: in vivo, Setaria faberii; conditions: for Foxtail, Giant plant response rating: 0 to 100 scale, 0 no effect, 100 complete control, approx. 10 days
How it was run: (§1)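 Greenhouse pot test, loam/sand soil. Formulation: non-phytotoxic solvent mix plus surfactant. Pre: directed spray onto soil after sowing. Post: plants at 1–2 leaf, 2–10 cm. Rated visually vs untreated controls at ~10 d, 0 (no effect) to 100 (complete control).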

[2] = test system: pigweed; assay: Test A preemergence; assay type: in vivo, Amaranthus retroflexus; conditions: for Pigweed plant response rating: 0 to 100 scale, 0 no effect, 100 complete control, approx. 10 days
How it was run: as §1

[3] = test system: velvetleaf; assay: Test A postemergence; assay type: in vivo, Abutilon theophrasti
How it was run: as §1

[4] = test system: rice; assay: Test B flooded paddy test; assay type: in vivo, Oryza sativa; conditions: Flood, 250 g ai/ha; 0 to 100 scale where 0 is no effect and 100 is complete control
How it was run: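 Compound added straight to paddy water, with pots kept flooded 3 cm above soil, on plants grown to the 2-leaf stage. Visual scoring 0-100 (100 = complete control) against untreated controls after 13 to 15 greenhouse days.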

[5] = test system: Italian ryegrass; assay: Test C postemergence; assay type: in vivo, Lolium multiflorum; conditions: for Plant response rating (0 to 100), Ryegrass, Italian: postemergence; for Plant response rating, Ryegrass, Italian: Postemergence, scale 0 to 100 (0 no effect, 100 complete control)
How it was run: (§2)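 Visual ratings on a 0–100 scale (100 = complete control) were made versus untreated controls after 13–15 greenhouse days. Chemicals in a surfactant-containing non-phytotoxic solvent were applied either preemergence to seeds in loam–sand soil or postemergence to 1- to 4-leaf plants 2–18 cm tall.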

[6] = test system: wheat, winter; assay: Test C postemergence; assay type: in vivo, Triticum aestivum; conditions: for Plant response rating (0 to 100), Wheat: postemergence; for Plant response rating, Wheat: Postemergence, scale 0 to 100 (0 no effect, 100 complete control)
How it was run: as §2

[7] = test system: galium; assay: Test C postemergence; assay type: in vivo, Galium aparine; conditions: for Plant response rating, Galium: Postemergence
How it was run: as §2

[8] = test system: corn; assay: Test C postemergence; assay type: in vivo, Zea mays; conditions: for Plant response rating, Corn: Postemergence
How it was run: as §2

[9] = test system: yellow nutsedge; assay: Test C postemergence; assay type: in vivo, Cyperus esculentus; conditions: for Plant response rating (0 to 100), Nutsedge, Yellow: postemergence; for Plant response rating, Nutsedge, Yellow: Postemergence, scale 0 to 100 (0 no effect, 100 complete control)
How it was run: as §2

[10] = test system: barnyardgrass; assay: Test C postemergence; assay type: in vivo, Echinochloa crus-galli; conditions: for Plant response rating, Barnyardgrass: Postemergence
How it was run: as §2

[11] = test system: kochia; assay: Test C postemergence; assay type: in vivo, Kochia scoparia; conditions: for Plant response rating, Kochia: Postemergence
How it was run: as §2

[12] = 125 g ai/ha, 0 to 100 scale where 0 is no effect and 100 is complete control
[13] = 31 g ai/ha, scale 0 to 100 (0 no effect, 100 complete control), 13 to 15 days
[14] = 62 g ai/ha, scale 0 to 100 (0 no effect, 100 complete control)
[15] = 16 g ai/ha, postemergence, visual rating, scale 0 to 100 (0 no effect, 100 complete control), 13 to 15 days

SMILES	Plant response rating, Rice [4]	Plant response rating (0 to 100), Ryegrass, Italian ([5]; 125 g ai/ha)	Plant response rating, Ryegrass, Italian ([5]; 31 g ai/ha, 13 to 15 days)	Plant response rating, Ryegrass, Italian ([5]; 62 g ai/ha)	Plant response rating (0 to 100), Wheat ([6]; 125 g ai/ha)	Plant response rating, Wheat ([6]; 31 g ai/ha, 13 to 15 days)	Plant response rating, Wheat ([6]; 62 g ai/ha)	Plant response rating (0 to 100), Galium ([7]; 125 g ai/ha, postemergence)	Plant response rating, Galium [7, 13]	Plant response rating, Galium [7, 14]	Plant response rating (0 to 100), Corn ([8]; 125 g ai/ha, postemergence)	Plant response rating, Corn [8, 13]	Plant response rating, Corn [8, 14]	Plant response rating (0 to 100), Nutsedge, Yellow ([9]; 125 g ai/ha)	Plant response rating, Nutsedge, Yellow ([9]; 31 g ai/ha, 13 to 15 days)	Plant response rating, Nutsedge, Yellow ([9]; 62 g ai/ha)	Plant response rating (0 to 100), Barnyardgrass ([10]; 125 g ai/ha, postemergence)	Plant response rating, Barnyardgrass [10, 13]	Plant response rating, Barnyardgrass [10, 14]	Plant response rating (0 to 100), Kochia ([11]; 125 g ai/ha, postemergence)	further results
N#Cc1cccc(Oc2ncc(F)cn2)c1-n1cc(Br)cn1 [Compound 62]	0	5	0	0	5	0	0	80	65	65	15	5	15	5	0	5	5	0	5	90	Plant response rating, Foxtail, Giant [1, 12]: 90; Foxtail, Giant plant response rating ([1]; 500 g ai/ha): 100; Plant response rating, Pigweed [2, 12]: 100; Pigweed plant response rating ([2]; 500 g ai/ha): 100; Plant response rating, Velvetleaf [3, 12]: 100; Plant response rating, Velvetleaf ([3]; 500 g ai/ha, 0 to 100 scale, 0 no effect, 100 complete control): 100; Plant response rating (0 to 100), Ryegrass, Italian ([5]; 250 g ai/ha): 15; Plant response rating (0 to 100), Wheat ([6]; 250 g ai/ha): 20; Plant response rating (0 to 100), Galium ([7]; 250 g ai/ha, postemergence): 95; Plant response rating (0 to 100), Corn ([8]; 250 g ai/ha, postemergence): 20; Plant response rating (0 to 100), Nutsedge, Yellow ([9]; 250 g ai/ha): 15; Plant response rating (0 to 100), Barnyardgrass ([10]; 250 g ai/ha, postemergence): 10; Plant response rating (0 to 100), Kochia ([11]; 250 g ai/ha, postemergence): 95; Plant response rating, Kochia [11, 13]: 80; Plant response rating, Kochia [11, 14]: 90
Clc1cnc(Oc2cccc(Br)c2-n2cc(Br)cn2)nc1 [Compound 65]	0	5	0	0	10	0	5	98	50	85	10	10	10	15	5	5	10	5	5	98	Foxtail, Giant plant response rating ([1]; 1000 g ai/ha): 100; Pigweed plant response rating ([2]; 1000 g ai/ha): 100; Plant response rating, Velvetleaf ([3]; 1000 g ai/ha, 0 to 100 scale, 0 no effect, 100 complete control): 100; Galium plant response rating [7, 15]: 100; Corn plant response rating [8, 15]: 5; Barnyardgrass plant response rating [10, 15]: 5; Kochia plant response rating [11, 15]: 90; Plant response rating, Kochia [11, 13]: 90; Plant response rating, Kochia [11, 14]: 98
